Data on 29 compounds can be found in ChEMBL document CHEMBL4364243, “Structure-activity relationships of potentiators of the antibiotic activity of clarithromycin against Escherichia coli” (2019).

Structures are written as SMILES. In brackets after ≈: the same amount, converted by molar mass. Activity calls are given as the source filed them. The calls are words filed in the database; no cut-off is given here. Bridge positions count the residues as written; N and C are the ends. Square brackets hold non-standard residues; d marks the D form. Peptide text beside a SMILES is read from it. * marks the point of attachment. X1 = CC[C@H](C)CCCCC(=O)*; βNA = c1ccc2cc(N*)ccc2c1; Dab = NCC[C@H](N)C(=O)O Where only a bound is given, the exact number is not on record here.

Test [1] has as its system Escherichia coli. Description: Antibacterial activity against Escherichia coli ATCC 25922 incubated for 24 hrs by serial dilution method. Particulars: ATCC 25922, 24 h. The class given is functional.
In test [2] the test system is Escherichia coli. The experiment in a line: Potentiation of clarithromycin-induced antibacterial activity against Escherichia coli ATCC 25922 assessed as fold reduction in clarithromycin MIC at 12.5 ug/ml incubated for 24 hrs in presence of clarithromycin. It is filed as functional.
Test [3] deals with Escherichia coli. The experiment in a line: Potentiation of clarithromycin-induced antibacterial activity against Escherichia coli ATCC 25922 assessed as clarithromycin MIC at 12.5 ug/ml incubated for 24 hrs by microtiter plate reader analysis (reference value: 64 microg/ml). Particulars: ATCC 25922, 24 h. The class given is functional.
Another test has as its system Pseudomonas aeruginosa. Description: Potentiation of levofloxacin-induced antibacterial activity against Pseudomonas aeruginosa assessed as concentration required to decrease levofloxacin MIC by 8 fold in presence of levofloxacin. It is filed as functional. Conditions: read-out: MEC.
Test [4] has as its system Escherichia coli ATCC 25922. The experiment in a line: Inhibition of efflux pump in CCCP-pretreated Escherichia coli ATCC 25922 assessed as […] by measuring decrease in fluorescence intensity pre-incubated for 5 mins followed by glucose addition by Hoechst 33342 staining based fluorescence assay.
The subject of test [5] is Escherichia coli. The experiment in a line: Induction of inner membrane permeabilization in Escherichia coli ATCC 25922 assessed as increase in propidium iodide uptake at 1/32 to 1/2 times MIC by PI staining based flow cytometric analysis. The class given is organism-based.
Test [6] has as its system Escherichia coli ATCC 25922. Description: Induction of outer membrane permeabilization/inhibition of AcrAB-TolC efflux pump in Escherichia coli ATCC 25922 assessed as increase in NPN uptake incubated for 10 mins in dark by fluorescence assay.
The subject of test [7] is Escherichia coli. The experiment in a line: Potentiation of clarithromycin-induced antibacterial activity against Escherichia coli ATCC 25922 assessed as fold reduction in clarithromycin MIC at 50 ug/ml incubated for 24 hrs in presence of clarithromycin. The class given is functional.
Test [8] relates to Escherichia coli. The experiment in a line: Potentiation of calrithromycin-induced antibacterial activity against Escherichia coli ATCC 25922 assessed as clarithromycin MIC at 50 ug/ml incubated for 24 hrs by microtiter plate reader analysis (reference value: 64 microg/ml). It is filed as functional. Particulars: ATCC 25922, 24 h.
The subject of test [9] is Escherichia coli ATCC 25922. Description: Induction of outer membrane permeabilization/inhibition of AcrAB-TolC efflux pump in Escherichia coli ATCC 25922 assessed as increase in NPN uptake at 1/32 to 1/2 times MIC incubated for 10 mins in dark by fluorescence assay.

`CC[C@H]1OC(=O)[C@H](C)[C@@H](O[C@H]2C[C@@](C)(OC)[C@@H](O)[C@H](C)O2)[C@H](C)[C@@H](O[C@@H]2O[C@H](C)C[C@H](N(C)C)[C@H]2O)[C@](C)(OC)C[C@@H](C)C(=O)[C@H](C)[C@@H](O)[C@]1(C)O` [CLARITHROMYCIN] had an MIC against Escherichia coli [1] of 64 µg/mL (≈ 85.6 µM).

For the compound `NCCC[C@H](N)C(=O)NC(c1ccccc1)c1ccccc1`, the MIC in the test with Escherichia coli [1] was above 100 µg/mL; in the test with Escherichia coli [3], 64 µg/mL. In the test with Escherichia coli [2], the “fold change (FC)” value turned out to be 1.

`CN(C(=O)[C@@H](N)CCCN)C(CCc1ccccc1)CCc1ccccc1`: the MIC is above 100 µg/mL against Escherichia coli [1] and 32 µg/mL in the test with Escherichia coli [3]. Besides, the “fold change (FC)” value in the test on Escherichia coli [2] is reported as 2.

Turning to `NCCC[C@@H](N)C(=O)N[C@H](CCc1ccccc1)COc1ccc(Cl)cc1`, the minimal effective concentration with Pseudomonas aeruginosa stood at 5 µg/mL.

For the compound `NCCC[C@@H](N)C(=O)N[C@H](CCc1ccccc1)CSc1ccc(Cl)cc1`, the minimal effective concentration with Pseudomonas aeruginosa was 1.25 µg/mL.

On to `NCCC[C@H](N)C(=O)NC(CCc1ccccc1)CCc1ccccc1`, for which the MIC with Escherichia coli [1] is above 100 µg/mL; in the test on Escherichia coli [3], 16 µg/mL. For the same compound, the “fold change (FC)” value with Escherichia coli [2] came out at 4.

`CN(C(=O)[C@@H](N)CCCN)C(Cc1ccccc1)Cc1ccccc1`: the MIC with Escherichia coli [1] is above 100 µg/mL; in the test with Escherichia coli [3], 32 µg/mL. The “fold change (FC)” value in the test with Escherichia coli [2] was determined as 2.

As to `NCCC[C@@H](N)C(=O)NC(CCc1ccccc1)CCc1ccccc1`, the MIC against Escherichia coli [1] was above 100 µg/mL; in the test on Escherichia coli [3], 32 µg/mL. In the test on Escherichia coli [2], the “fold change (FC)” value was determined as 2.

In the case of `NCC[C@H](N)CNC(CCc1ccccc1)CCc1ccccc1`, the values for the MIC with Escherichia coli [1] and in the test with Escherichia coli [3] were 100 µg/mL (≈ 307 µM) and 16 µg/mL, respectively. The “fold change (FC)” value in the test on Escherichia coli [2] is given as 4.

Regarding `NCC[C@H](N)CCNC(CCc1ccccc1)CCc1ccccc1`, the inhibition result in test [4] is “Dose-dependent effect”. The results for the MIC against Escherichia coli [1] and in the test with Escherichia coli [3] were 100 µg/mL (≈ 295 µM) and 2 µg/mL, respectively. For the same compound, the outcome in the test on Escherichia coli [5] was inactive. For the same compound, the “fold change (FC)” value in the test with Escherichia coli [2] was 32. Also, in test [6], the Activity entry is “Dose-dependent effect”.

As to `NCCC[C@H](N)CNC(CCc1ccccc1)CCc1ccccc1`, the figures for the MIC against Escherichia coli [1] and in the test with Escherichia coli [3] were 25 µg/mL (≈ 73.6 µM) and 8 µg/mL, respectively. Besides, in the test on Escherichia coli [2], the “fold change (FC)” value is given as 8.

As to `CN(C(=O)[C@@H](N)CCCN)C(c1ccccc1)c1ccccc1`, the MIC in the test on Escherichia coli [1] was above 100 µg/mL; in the test with Escherichia coli [3] it was 32 µg/mL. Moreover, the “fold change (FC)” value with Escherichia coli [2] turned out to be 2.

With `N=C(N)NCCC[C@H](NC(=O)[C@@H](N)Cc1ccccc1)C(=O)Nc1ccc2ccccc2c1` [PABETAN] (H-Phe-Arg-βNA), the “fold change (FC)” value in the test on Escherichia coli [7] worked out at 4. Besides, the MIC with Escherichia coli [1] is above 100 µg/mL; with Escherichia coli [8], 16 µg/mL. Further, the minimal effective concentration in the test on Pseudomonas aeruginosa was 10 µg/mL.

For `CNCCC[C@H](N)C(=O)NC(CCc1ccccc1)CCc1ccccc1`, the MIC in the test on Escherichia coli [1] turned out to be 100 µg/mL (≈ 272 µM); in the test with Escherichia coli [3] it was 64 µg/mL. Further, the “fold change (FC)” value in the test with Escherichia coli [2] is recorded as 1.

In the case of `NCC[C@H](N)C(=O)NC(CCc1ccccc1)CCc1ccccc1`, the MIC in the test with Escherichia coli [1] was 100 µg/mL (≈ 295 µM); in the test on Escherichia coli [3] it was 32 µg/mL. Further, in the test on Escherichia coli [2], the “fold change (FC)” value was determined as 2.

Consider `CC[C@H](C)CCCCC(=O)N[C@@H](CCN)C(=O)N[C@H](C(=O)N[C@@H](CCN)C(=O)N[C@H]1CCNC(=O)[C@H]([C@@H](C)O)NC(=O)[C@H](CCN)NC(=O)[C@H](CCN)NC(=O)[C@H](CC(C)C)NC(=O)[C@@H](Cc2ccccc2)NC(=O)[C@H](CCN)NC1=O)[C@@H](C)O` (X1-[Dab]T[Dab][Dab][Dab][dF]L[Dab][Dab]T; lactam 4-C), for which the outcome (in test [9]; with Escherichia coli [5]) was Active. The compound further displayed an MIC against Escherichia coli [1] of 1.56 µg/mL (≈ 1.3 µM).

In the case of `NC[C@@H](N)CCNC(CCc1ccccc1)CCc1ccccc1`, the MIC against Escherichia coli [1] stood at 100 µg/mL (≈ 307 µM); in the test on Escherichia coli [3], 32 µg/mL. Further, the “fold change (FC)” value with Escherichia coli [2] is 2.

Regarding `NCCC[C@@H](N)C(=O)N[C@H](CCc1ccccc1)C(=O)Nc1ncc(C(=O)Nc2cnc3ccccc3c2)o1`, the minimal effective concentration with Pseudomonas aeruginosa was 5 µg/mL.

For `NCC[C@H](N)CC(=O)NC(CCc1ccccc1)CCc1ccccc1`, the values for the minimum inhibitory concentration (MIC) against Escherichia coli [1] and with Escherichia coli [3] were 100 µg/mL (≈ 283 µM) and 4 µg/mL, respectively. Also, the “fold change (FC)” value with Escherichia coli [2] was 16.

Take `COc1ccc(CN2CCN(C(CCc3ccccc3)CCc3ccccc3)CC2)cc1`: the MIC with Escherichia coli [1] is above 100 µg/mL; in the test with Escherichia coli [3] it was 64 µg/mL. Moreover, the “fold change (FC)” value with Escherichia coli [2] came out at 1.

As for `N=C(N)NCCC[C@H](N)C(=O)NC(CCc1ccccc1)CCc1ccccc1`, the results for the MIC with Escherichia coli [1] and in the test with Escherichia coli [3] were above 100 µg/mL and 32 µg/mL, respectively. Also, the “fold change (FC)” value with Escherichia coli [2] is 2.

As to `NCCC[C@H](NC(=O)[C@@H](N)Cc1ccccc1)C(=O)Nc1ccc2ccccc2c1`, the minimal effective concentration with Pseudomonas aeruginosa was 5 µg/mL.

Consider `NCCC[C@H](N)C(=O)NC(Cc1ccccc1)Cc1ccccc1`, for which the MIC was above 100 µg/mL against Escherichia coli [1] and 32 µg/mL with Escherichia coli [3]. Also, in the test with Escherichia coli [2], the “fold change (FC)” value came to 2.

Take `NC[C@@H](N)CC(=O)NC(CCc1ccccc1)CCc1ccccc1`: the results for the MIC against Escherichia coli [1] and in the test on Escherichia coli [3] were 200 µg/mL (≈ 589 µM) and 64 µg/mL, respectively. For the same compound, the “fold change (FC)” value with Escherichia coli [2] is reported as 1.

In the case of `CN1CCN(C(CCc2ccccc2)CCc2ccccc2)CC1`, the MIC was above 100 µg/mL with Escherichia coli [1] and 64 µg/mL in the test with Escherichia coli [3]. For the same compound, the “fold change (FC)” value with Escherichia coli [2] was determined as 1.

Turning to `NCCC[C@@H](N)C(=O)N[C@H](CCc1ccccc1)C(=O)Nc1cnc2ccccc2c1`, the minimal effective concentration in the test on Pseudomonas aeruginosa was found to be 10 µg/mL.

For `NC[C@@H](N)CCCNC(CCc1ccccc1)CCc1ccccc1`, the MIC in the test on Escherichia coli [1] came to 25 µg/mL (≈ 73.6 µM); with Escherichia coli [3], 4 µg/mL. Besides, the “fold change (FC)” value in the test with Escherichia coli [2] is given as 16.

As to `CN(C)CCC[C@H](N)C(=O)NC(CCc1ccccc1)CCc1ccccc1`, the MIC was above 100 µg/mL against Escherichia coli [1] and 64 µg/mL in the test on Escherichia coli [3]. For the same compound, the “fold change (FC)” value with Escherichia coli [2] is listed as 1.

In the case of `NC[C@@H](N)CCC(=O)NC(CCc1ccccc1)CCc1ccccc1`, the MIC against Escherichia coli [1] was 100 µg/mL (≈ 283 µM); in the test with Escherichia coli [3], 32 µg/mL. The “fold change (FC)” value in the test with Escherichia coli [2] is on record as 2.
